Laboratory results reported in PMC11346425, “Sulfoquinovosyl diacylglycerol is required for dimerisation of the Rhodobacter sphaeroides reaction centre-light harvesting 1 core complex” (Biochemical Journal, 2024).

Assays:
Test in all cases: light-driven cytochrome c2 oxidation at […] nm, steady state
Format in all cases: biochemical
[1] = molecular target: T1, dimeric RC-LH1 core complex (Cereibacter sphaeroides, UniProt Q3J1A5+Q3J1A6); conditions: 50 uM ubiquinone-2, 5 uM reduced cytochrome c2, 810 nm LED, pH 8, 0.03% beta-DDM; electron acceptor; 0.01 uM RC-LH1
T1 construct: gene pufL; native, beta-DDM-solubilised membranes, sucrose gradient dimer band; 2 RC, S-shaped LH1 of 28 subunits; with Reaction center protein M chain; Reaction center protein H chain; Light-harvesting protein B-875 alpha chain; Light-harvesting protein B-875 beta chain; Intrinsic membrane protein PufX; Protein-Y; Protein-Z

[2] = molecular target: T2, monomeric RC-LH1 core complex (RC3-LH1_14-XY) (Cereibacter sphaeroides, UniProt Q3J1A5+Q3J1A6); conditions: 50 uM ubiquinone-2, 5 uM reduced cytochrome c2, 810 nm LED, pH 8, 0.03% beta-DDM; electron acceptor
T2 construct: gene pufL; native, beta-DDM-solubilised membranes, sucrose gradient monomer band; 1 RC, C-shaped LH1 of 14 subunits; with Reaction center protein M chain; Reaction center protein H chain; Light-harvesting protein B-875 alpha chain; Light-harvesting protein B-875 beta chain; Intrinsic membrane protein PufX; Protein-Y

[3] = molecular target: T2, monomeric RC-LH1 core complex (RC3-LH1_14-XY); conditions: 50 uM ubiquinone-2, 5 uM reduced cytochrome c2, 810 nm LED, pH 8, 0.03% beta-DDM; electron acceptor; 0.05 uM RC-LH1

In the case of COC1=C(OC)C(=O)C(C/C=C(\C)CCC=C(C)C)=C(C)C1=O [ubiquinone-2], the “light-driven cytochrome c2 oxidation at 550 nm, steady state” value (shortened to “light-driven cytochrome c2 oxidation”) [1] is reported as “light-driven oxidation rate of cytochrome c2 by monomeric and dimeric complexes in the presence of ubiquinone-2”, the “light-driven cytochrome c2 oxidation” value [2] is reported as “light-driven oxidation rate of cytochrome c2 by monomeric and dimeric complexes in the presence of ubiquinone-2” and the “light-driven cytochrome c2 oxidation” value [3] is reported as “Turnover assays for monomeric complexes from WT, PufX R49L R53L, ΔolsBA and ΔsqdB mutants”.
